We go through 8 compounds from ChEMBL document CHEMBL1201862, “PubChem BioAssay data set” (2004).

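Values below derive from 48-hour exposures of cells grown in 96-well plates, with endpoints linearly interpolated between the two concentrations bracketing the appropriate inhibition level. GI50: concentration for 50% inhibition of growth.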 The source made the active and inactive calls. No stated cut-off is given here; in the data, active = GI50 up to about 1.1 µM and inactive = higher. Some results are limits rather than exact numbers.

Common to all, as to assay: inhibition of tumour cell growth, NCI panel, 48 h
Assay [1] deals with ACHN.
The test system of assay [2] is BT-549.
In assay [3] the test system is COLO 205.
In assay [4] the test system is DU-145.
The subject of assay [5] is HCT-116.
Assay [6] concerns HOP-62.
The test system of assay [7] is Hs-578T.
The test system of assay [8] is K562.
Assay [9] concerns KM12.
In assay [10] the test system is MDA-N.
Assay [11] deals with MOLT-4.
Assay [12] concerns NCI-H522.
The test system of assay [13] is OVCAR-3.
Assay [14] concerns RXF 393.
The test system of assay [15] is SF-539.
The subject of assay [16] is SK-MEL-5.
Assay [17] has as its system SK-OV-3.
For assay [18], the system named is SNB-75.
The subject of assay [19] is UACC-257.
Assay [20] has as its system SNB-78.

For the compound `C[C@]12CCC3=NCCN3C1=CC[C@@H]1[C@@H]2CC[C@@]2(C)[C@H]1CC[C@]2(C)O`, the GI50 was > 100 µM (inactive) in assay [1]; 44 µM (inactive) in [2]; 25.8 µM (inactive) in assay [3]; > 100 µM (inactive) in [4]; 31 µM (inactive) in [5]; 84.9 µM (inactive) in assay [6]. Besides, the GI50 in assay [7] was 30.5 µM (inactive); in [8] it was 34.7 µM (inactive); in [9] it was 82.6 µM (inactive); in [10], 61.9 µM (inactive); in assay [11], 35.3 µM (inactive); in [12], 58.1 µM (inactive). Also, the GI50 in assay [13] is > 100 µM (inactive); in assay [14], 23 µM (inactive); in [15], 22.2 µM (inactive); in assay [16], 17.6 µM (inactive); in [17], > 100 µM (inactive); in [18], 40.7 µM (inactive). Besides, the GI50 in assay [19] is 24.4 µM (inactive).

In the case of `CCOP(=O)(OCC)/C(C#N)=C/c1cnc(C)[nH]1`, the GI50 in assay [1], in [2], in assay [3], in [4], in [5] and in assay [6] was > 100 µM (inactive) throughout. The GI50 in assay [7], in [8], in [9], in assay [10], in assay [11] and in assay [12] was > 100 µM (inactive) throughout. The GI50 in assay [13] was > 100 µM (inactive); in assay [14], > 100 µM (inactive); in assay [15] it was > 100 µM (inactive); in assay [16], > 100 µM (inactive); in assay [17], 20.5 µM (inactive); in assay [18] it was > 100 µM (inactive). Also, the GI50 in assay [19] was > 100 µM (inactive).

On to `O=c1c2cc(Br)cc(Br)c2[nH]c(=S)n1-c1ccccc1`, for which the GI50 is > 100 µM (inactive) in [1]; > 100 µM (inactive) in assay [3]; 48.8 µM (inactive) in assay [5]; 88.5 µM (inactive) in [6]; 32.4 µM (inactive) in [8]; > 100 µM (inactive) in assay [9]. Moreover, the GI50 was 60.1 µM (inactive) in [13]; 83 µM (inactive) in [15]; 54.8 µM (inactive) in [16]; > 100 µM (inactive) in assay [17]; 32.1 µM (inactive) in [18]; > 100 µM (inactive) in assay [20]. For the same compound, in assay [19], the GI50 is > 100 µM (inactive).

In the case of `Cc1occc1C(=S)Nc1ccc(Cl)c(/C=N/OC(C)C)c1`, the GI50 in assay [1] was 21.2 µM (inactive); in assay [2], 18.2 µM (inactive); in [3], 16.9 µM (inactive); in assay [4], 24 µM (inactive); in assay [5], 20.4 µM (inactive); in [6] it was 25.2 µM (inactive). The GI50 in [7] was 26.7 µM (inactive); in [8] it was 29.7 µM (inactive); in assay [9], 20 µM (inactive); in assay [10] it was 20.8 µM (inactive); in assay [11] it was 20.8 µM (inactive); in assay [12] it was 12.7 µM (inactive). In addition, the GI50 in assay [13] is 15.6 µM (inactive); in [14] it was 21.3 µM (inactive); in assay [15], 16.7 µM (inactive); in [16] it was 19.9 µM (inactive); in assay [17], 24.3 µM (inactive); in [18], 25.1 µM (inactive). For the same compound, the GI50 in assay [19] was 22 µM (inactive).

On to `N#Cc1nc(/C=C/c2ccccc2)oc1N`, for which the GI50 was > 100 µM (inactive) in [1]; 13.1 µM (inactive) in [2]; > 100 µM (inactive) in assay [3]; > 100 µM (inactive) in [4]; > 100 µM (inactive) in assay [5]; > 100 µM (inactive) in assay [6]. In addition, the GI50 is > 100 µM (inactive) in assay [7]; > 100 µM (inactive) in assay [8]; > 100 µM (inactive) in assay [9]; > 100 µM (inactive) in assay [10]; 13.7 µM (inactive) in assay [11]; 8.2 µM (inactive) in assay [12]. In addition, the GI50 in assay [13], in assay [14], in assay [15], in [16], in assay [17] and in [18] was > 100 µM (inactive) throughout. Besides, in [19], the GI50 is > 100 µM (inactive).

Regarding `O=C1N/C(=N/N=C/c2c[nH]c3ccccc23)N/C1=C\c1c[nH]c2ccccc12`, the GI50 in assay [1] is 21.3 µM (inactive); in assay [2] it was 20.3 µM (inactive); in [3] it was 13.8 µM (inactive); in assay [4], 30.2 µM (inactive); in [5], 19.1 µM (inactive); in assay [6] it was 27 µM (inactive). The GI50 was 18.7 µM (inactive) in assay [7]; 14.7 µM (inactive) in [8]; 21 µM (inactive) in assay [9]; 27.6 µM (inactive) in [10]; 10.5 µM (inactive) in assay [11]; 11.9 µM (inactive) in assay [12]. The GI50 in [13] was 14.7 µM (inactive); in [14] it was 28.6 µM (inactive); in [15] it was 22.1 µM (inactive); in assay [16], 19.6 µM (inactive); in assay [17], 35.9 µM (inactive); in assay [18], 28.6 µM (inactive). The GI50 in assay [19] was 28.5 µM (inactive).

On to `Cc1ccc(/N=N\c2c(O)c(S(=O)(=O)O)cc3cc(S(=O)(=O)O)ccc23)c(C)c1`, for which the GI50 in assay [1], in [2], in [3], in assay [4], in [5] and in assay [6] was > 100 µM (inactive) in each case. Besides, the GI50 in assay [7], in assay [8], in [9], in assay [10], in assay [11] and in assay [12] was > 100 µM (inactive) in each case. Also, the GI50 in assay [13], in assay [14], in [15], in assay [16], in assay [17] and in assay [18] was > 100 µM (inactive) each time. The GI50 in [19] is > 100 µM (inactive).

`CCCCOCCOC1=CC(=O)c2c(O)ccc(O)c2C1=O`: the GI50 in assay [1] was 1.72 µM (inactive); in assay [2] it was 1.63 µM (inactive); in [3], 1.14 µM (inactive); in [4], 1.78 µM (inactive); in assay [5], 1.49 µM (inactive); in [6] it was 0.458 µM (active). For the same compound, the GI50 in assay [7] is 2.22 µM (inactive); in [8], 2 µM (inactive); in [9] it was 1.75 µM (inactive); in assay [10] it was 0.185 µM (active); in assay [11] it was 1.28 µM (inactive); in [12], 1.58 µM (inactive). In addition, the GI50 was 1.67 µM (inactive) in [13]; 1.66 µM (inactive) in assay [14]; 1.58 µM (inactive) in assay [15]; 0.216 µM (active) in [16]; > 10 µM (inactive) in assay [17]; 1.57 µM (inactive) in assay [18]. Moreover, in assay [19], the GI50 is 1.03 µM (active).
